What all share (format): cell-based
In experiment [1] the test system is TRKA G595R mutated KM12 cells. As to the kind of experiment: Cell viability assay in TRKA G595R mutated KM12 cells (CellTiter-Glo). The note with it: Homo sapiens, 72 h, 3 days. As to the method: KM12, TRKA G595R mutated KM12, HEL, and other cells were cultured at 37° C. with 5% CO2 in DMEM or RPMI 1640 Medium supplemented with 10% fetal bovine serum. Cells were authenticated using the short tandem repeat (STR) assays. Mycoplasma test results were negative.
Cells were seeded at a density of 5000 cells per well in 96-well assay plates and treated with test compounds following a 11-point 3-fold serial dilution. Three days later, cell viability was determined using the CellTiter-Glo assay kit (Promega) according to the manufacturer's instructions. The dose-response curves were determined and IC50 values were calculated using the GraphPad Prism software following a nonlinear regression (least squares fit) method.
The activities of selected compounds on cell viability (IC50 values) and TMP3-TRKA degradation (percentage degradation at 10 nM) in KM12 cells or KM12-G595R mutated KM12 cells (KM12-G595R) are listed in Table 2.

For the next experiment, the target named is T1, wildtype TRKA protein (Homo sapiens, UniProt P04629).
T1 construct: HEL cells expressing endogenous TRKA; endogenous in cells; host or cells: HEL erythroleukemia cells
Description: Wildtype TRKA degradation in HEL cells (Western blot). To be noted: 0.1 nM to 1000 nM, 16 hours, Western blot (FIG. 4A). As for the experimental part: HEL cells were treated with heterobifunctional compounds CPD-019 and CPD-002 at 10 nM or 100 nM for 16 hours.
(§1) HEL cells expressing endogenous TRKA, and NIH3T3-TRKB and NIH3T3-TRKC cells prepared as described above were treated with heterobifunctional compound CPD-031 at 0.1 nM, 1 nM, 10 nM, 100 nM and 1000 nM for 16 hours.
(§2) Cultured cells were washed with cold PBS once and lysed in cold RIPA buffer supplemented with protease inhibitors and phosphatase inhibitors (Beyotime Biotechnology). The solutions were then incubated at 4° C. for 30 minutes with gentle agitation to fully lyse cells. Cell lysates were centrifuged at 13,000 rpm for 10 minutes at 4° C. and pellets were discarded. Total protein concentrations in the lysates were determined by BCA assays (Beyotime Biotechnology). Cell lysates were mixed with Laemmli loading buffer to 1× and heated at 99° C. for 5 min. Proteins were resolved on SDS-PAGE and visualized by chemiluminescence. Images were taken by a ChemiDoc MP Imaging system (Bio-Rad). Protein bands were quantitated using the software provided by Bio-Rad.

The target in a further experiment is T2, human full length TRKB (Homo sapiens, UniProt Q16620).
T2 construct: lentivirus directing expression of human full length TRKB or TRKC; expressed in transfected cells; host or cells: NIH3T3 cells, lentiviral transduction, puromycin selection
As to the kind of experiment: TRKB degradation in NIH3T3-TRKB cells (Western blot). To be noted: 0.1 nM to 1000 nM, 16 hours, Western blot (FIG. 4B). As to the method: (§3) NIH3T3 cells were infected with lentivirus directing expression of human full length TRKB or TRKC. Cells were then selected using 1 ug/ml puromycin to establish NIH3T3-TRKB and NIH3T3-TRKC cell lines that stably expressed human TRKB or TRKC, respectively.
as §1, §2

The target in a further experiment is T3, human full length TRKC (Homo sapiens, UniProt Q16288).
T3 construct: lentivirus directing expression of human full length TRKB or TRKC; expressed in transfected cells; host or cells: NIH3T3 cells, lentiviral transduction, puromycin selection
Description: TRKC degradation in NIH3T3-TRKC cells (Western blot). The note with it: 0.1 nM to 1000 nM, 16 hours, Western blot (FIG. 4C). As to the method:
as §3, §1, §2

The target in a further experiment is T4, TPM3-TRKA fusion protein (Homo sapiens, UniProt P04629).
T4 construct: TPM3 (N-terminal part of tropomyosin alpha-3, natural fusion partner); endogenous in cells; host or cells: KM12 colon cancer cells; the other entry of the earlier key: TPM3 (P06753, Tropomyosin alpha-3 chain)
Description: TPM3-TRKA degradation in KM12 cells (Western blot). To be noted: 16 hours, TRK protein, immunoblot; for inhibition at 0.01 µM: 10 nM; for inhibition at 0.1 µM: 100 nM. A digest of the protocol: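 KM12 cells treated with compound at 10 nM or 100 nM for 16 h, lysed in RIPA, and TRK protein measured by immunoblot with TRK-specific antibody and chemiluminescence band quantitation. Percent degradation binned: −, none; +, <50%; ++, ≥50% but <80%; +++, ≥80%.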

The test system of the next experiment is KM12 cells. As to the kind of experiment: KM12 cell viability assay (CellTiter-Glo). To be noted: Homo sapiens, 72 h; KM12 cells, 3 days, CellTiter-Glo. A digest of the protocol:
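KM12 cells, 5000 per well, treated 3 days with 11-point 3-fold serial dilutions of heterobifunctional compounds. Viability by CellTiter-Glo luminescence, normalized to untreated cells; IC50 from least-squares nonlinear regression.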

Structures are written as SMILES.

T4 sequence (P04629 with tags, fused parts or gaps): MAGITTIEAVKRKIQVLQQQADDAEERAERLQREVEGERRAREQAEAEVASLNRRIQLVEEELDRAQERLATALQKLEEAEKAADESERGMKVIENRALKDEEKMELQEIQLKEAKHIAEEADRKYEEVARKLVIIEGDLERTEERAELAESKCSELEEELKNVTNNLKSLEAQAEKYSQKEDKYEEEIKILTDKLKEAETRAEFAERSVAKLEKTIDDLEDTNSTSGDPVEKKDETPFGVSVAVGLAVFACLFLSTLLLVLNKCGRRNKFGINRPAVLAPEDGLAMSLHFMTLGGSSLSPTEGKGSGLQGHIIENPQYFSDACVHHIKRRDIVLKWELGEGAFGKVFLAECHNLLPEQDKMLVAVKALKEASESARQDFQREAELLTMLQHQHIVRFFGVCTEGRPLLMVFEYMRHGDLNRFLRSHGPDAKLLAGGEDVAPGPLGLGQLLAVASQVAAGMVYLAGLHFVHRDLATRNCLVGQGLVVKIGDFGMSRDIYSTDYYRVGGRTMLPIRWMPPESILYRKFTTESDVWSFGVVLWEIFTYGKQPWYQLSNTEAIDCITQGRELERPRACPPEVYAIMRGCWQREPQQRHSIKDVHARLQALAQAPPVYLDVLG
T2 sequence (Q16620 32-822): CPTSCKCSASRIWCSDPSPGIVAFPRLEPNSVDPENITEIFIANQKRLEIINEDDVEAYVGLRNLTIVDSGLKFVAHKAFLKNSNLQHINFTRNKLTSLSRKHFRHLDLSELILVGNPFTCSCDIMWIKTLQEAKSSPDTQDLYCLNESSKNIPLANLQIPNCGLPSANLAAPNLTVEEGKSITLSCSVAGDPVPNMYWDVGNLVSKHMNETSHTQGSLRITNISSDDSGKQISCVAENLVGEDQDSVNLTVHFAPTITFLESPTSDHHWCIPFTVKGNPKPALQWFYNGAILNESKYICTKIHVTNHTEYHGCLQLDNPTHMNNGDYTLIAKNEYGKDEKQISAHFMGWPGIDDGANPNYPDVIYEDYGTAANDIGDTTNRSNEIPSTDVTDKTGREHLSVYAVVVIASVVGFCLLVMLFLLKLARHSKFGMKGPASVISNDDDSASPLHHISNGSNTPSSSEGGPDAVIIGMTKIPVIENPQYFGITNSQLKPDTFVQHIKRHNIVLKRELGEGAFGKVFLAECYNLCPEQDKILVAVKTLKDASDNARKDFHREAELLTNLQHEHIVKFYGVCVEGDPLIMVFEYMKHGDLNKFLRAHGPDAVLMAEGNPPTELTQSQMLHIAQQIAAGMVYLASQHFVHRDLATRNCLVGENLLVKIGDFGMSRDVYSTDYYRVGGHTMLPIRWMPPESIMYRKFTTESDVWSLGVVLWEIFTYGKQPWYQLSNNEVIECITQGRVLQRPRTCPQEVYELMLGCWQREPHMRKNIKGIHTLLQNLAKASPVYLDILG
T1 sequence (P04629 33-796): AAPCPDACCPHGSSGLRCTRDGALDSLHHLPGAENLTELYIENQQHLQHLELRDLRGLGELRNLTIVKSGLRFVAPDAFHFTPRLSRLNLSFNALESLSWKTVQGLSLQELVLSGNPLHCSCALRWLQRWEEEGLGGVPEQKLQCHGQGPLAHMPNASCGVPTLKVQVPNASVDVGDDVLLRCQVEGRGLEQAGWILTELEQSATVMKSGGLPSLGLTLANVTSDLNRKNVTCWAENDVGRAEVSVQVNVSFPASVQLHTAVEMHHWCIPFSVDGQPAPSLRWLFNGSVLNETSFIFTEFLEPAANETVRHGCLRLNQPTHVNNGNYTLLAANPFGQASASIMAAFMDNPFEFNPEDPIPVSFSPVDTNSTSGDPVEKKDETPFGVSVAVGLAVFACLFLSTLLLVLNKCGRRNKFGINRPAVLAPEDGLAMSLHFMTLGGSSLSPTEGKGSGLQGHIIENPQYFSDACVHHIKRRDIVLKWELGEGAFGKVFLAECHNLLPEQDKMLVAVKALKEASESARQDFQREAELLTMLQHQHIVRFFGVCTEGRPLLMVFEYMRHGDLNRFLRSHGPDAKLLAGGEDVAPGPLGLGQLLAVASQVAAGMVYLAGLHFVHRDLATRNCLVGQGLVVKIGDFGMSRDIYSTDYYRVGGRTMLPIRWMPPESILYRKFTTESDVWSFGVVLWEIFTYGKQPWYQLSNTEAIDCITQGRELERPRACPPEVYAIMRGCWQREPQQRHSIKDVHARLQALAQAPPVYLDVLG
T3 sequence (Q16288 32-839): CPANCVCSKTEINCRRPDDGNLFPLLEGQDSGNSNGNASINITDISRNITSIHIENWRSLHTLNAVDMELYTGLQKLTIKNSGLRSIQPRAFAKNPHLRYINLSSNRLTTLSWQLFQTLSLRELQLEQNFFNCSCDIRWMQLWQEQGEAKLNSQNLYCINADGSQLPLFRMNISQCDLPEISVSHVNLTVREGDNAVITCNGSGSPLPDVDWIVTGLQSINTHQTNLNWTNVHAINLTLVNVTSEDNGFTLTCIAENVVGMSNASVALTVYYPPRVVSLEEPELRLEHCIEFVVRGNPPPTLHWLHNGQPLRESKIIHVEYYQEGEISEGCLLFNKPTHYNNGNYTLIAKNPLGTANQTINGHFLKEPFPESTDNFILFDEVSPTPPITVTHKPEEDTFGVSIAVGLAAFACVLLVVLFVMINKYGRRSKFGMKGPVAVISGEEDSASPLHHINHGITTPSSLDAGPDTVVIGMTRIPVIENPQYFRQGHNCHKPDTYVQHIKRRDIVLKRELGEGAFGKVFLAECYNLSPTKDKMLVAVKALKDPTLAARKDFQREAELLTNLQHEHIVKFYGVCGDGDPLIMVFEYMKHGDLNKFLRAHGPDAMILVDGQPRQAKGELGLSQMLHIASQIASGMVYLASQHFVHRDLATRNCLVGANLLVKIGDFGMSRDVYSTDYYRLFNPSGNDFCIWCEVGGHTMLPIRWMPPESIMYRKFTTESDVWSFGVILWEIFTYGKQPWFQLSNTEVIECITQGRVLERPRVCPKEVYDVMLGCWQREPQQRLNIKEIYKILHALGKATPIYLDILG

In the case of `COCCN1C[C@@H](NC(=O)Nc2c(C)c(-c3cnc(N4CCN(CCNc5ccc6c(c5)C(=O)N(C5CCC(=O)NC5=O)C6=O)CC4)nc3)nn2-c2ccccc2)[C@H](c2cccc(F)c2)C1` (stereo partly drawn) [CPD-031, 1-(3-(2-(4-(2-((2-(2,6-dioxopiperidin-3-yl)-1,3-dioxoisoindolin-5-yl)amino)ethyl)piperazin-1-yl)pyrimidin-5-yl)-4-methyl-1-phenyl-1H-pyrazol-5-yl)-3-((3S,4R)-4-(3-fluorophenyl)-1-(2-methoxyethyl)pyrrolidin-3-yl)urea], the IC50 in experiment [1] was found to be 6.11 nM. In addition, the “wildtype TRKA protein levels in HEL cells” value on wildtype TRKA protein is on record as “significantly reduced”. In addition, the TRKB protein levels entry at human full length TRKB is “minimal reduction”. Also, the TRKC protein levels entry on human full length TRKC is “minimal reduction”. For the same compound, at TPM3-TRKA fusion protein, the inhibition at 0.01 µM was more than 80% and the inhibition at 0.1 µM was more than 80%. In the experiment with KM12 cells, this compound yielded an IC50 of 2.04 nM.

As to `COCCN1C[C@@H](NC(=O)Nc2c(C)c(-c3cnc(N4CCN(CCCc5ccc6c(c5)C(=O)N(C5CCC(=O)NC5=O)C6=O)CC4)nc3)nn2-c2ccccc2)[C@H](c2cccc(F)c2)C1` (stereo partly drawn) [CPD-032, 1-(3-(2-(4-(3-(2-(2,6-dioxopiperidin-3-yl)-1,3-dioxoisoindolin-5-yl)propyl)piperazin-1-yl)pyrimidin-5-yl)-4-methyl-1-phenyl-1H-pyrazol-5-yl)-3-((3S,4R)-4-(3-fluorophenyl)-1-(2-methoxyethyl)pyrrolidin-3-yl)urea], the 50% inhibitory concentration (IC50) in experiment [1] worked out at 18.2 nM; with KM12 cells, 13.7 nM. For the same compound, the inhibition at 0.01 µM on TPM3-TRKA fusion protein is more than 80%. On TPM3-TRKA fusion protein, the inhibition at 0.1 µM is more than 80%.

In experiment [1], `COCCN1C[C@@H](NC(=O)Nc2c(C)c(-c3cnc(N4CCN(CCc5ccc6c(c5)C(=O)N(C5CCC(=O)NC5=O)C6=O)CC4)nc3)nn2-c2ccccc2)[C@H](c2cccc(F)c2)C1` (stereo partly drawn) [CPD-033, 1-(3-(2-(4-(2-(2-(2,6-dioxopiperidin-3-yl)-1,3-dioxoisoindolin-5-yl)ethyl)piperazin-1-yl)pyrimidin-5-yl)-4-methyl-1-phenyl-1H-pyrazol-5-yl)-3-((3S,4R)-4-(3-fluorophenyl)-1-(2-methoxyethyl)pyrrolidin-3-yl)urea] gave a half-inhibitory concentration (IC50) of 94.6 nM. Also, at TPM3-TRKA fusion protein, the inhibition at 0.01 µM was 50 to 800% and the inhibition at 0.1 µM lay within 50 to 800%. Half-maximal inhibition in the experiment with KM12 cells (IC50) required 14.4 nM.

For the origin of these results see patent publication US20240246955A1, “TROPOMYOSIN RECEPTOR KINASE (TRK) DEGRADATION COMPOUNDS AND METHODS OF USE” (CULLGEN (SHANGHAI), INC., priority 2021, published 2024).
